Experimental data reported in ChEMBL document CHEMBL3045998, “QSAR analysis of 2-benzoxazolyl hydrazone derivatives for anticancer activity and its possible target prediction” (Med Chem Res, 2012).

Tests used:
Format in all cases: functional, cell-based
[1] = Cytotoxicity against Homo sapiens (human) Burkitt lymphoma cells assessed as growth inhibition
[2] = test system: HeLa; experiment: Cytotoxicity against Homo sapiens (human) HeLa cells assessed as growth inhibition
[3] = test system: CCRF-CEM; experiment: Cytotoxicity against Homo sapiens (human) CCRF-CEM cells assessed as growth inhibition

| SMILES | IC50 ([1]; read-out: IC50) [nM] | IC50 ([1]; read-out: pIC50 (converted)) [nM] | IC50 [2] [nM] | IC50 [3] [nM] |
| --- | --- | --- | --- | --- |
| C/C(=N\Nc1nc2ccccc2o1)c1nccc2ccccc12 | 200 | 200 | – | – |
| CC(C)(C)/C(=N\Nc1nc2ccccc2o1)c1ccccn1 | > 10000 | – | – | – |
| C/C(=N\Nc1nc2ccccc2o1)c1nccnc1C | 900 | 891 | 186 | 129 |
| C/C(=N\Nc1nc2ccccc2o1)c1cccnc1 | > 100000 | – | – | – |
| C/C(=N\Nc1nc2ccccc2o1)c1ncccn1 | 30 | 30.2 | – | – |
| C/C(=N\Nc1nc2ccccc2o1)c1cccnn1 | 1300 | 1290 | – | – |
| c1ccc(/C(=N\Nc2nc3ccccc3o2)c2ccccn2)cc1 | 120 | 120 | – | – |
| C(=N\Nc1nc2ccccc2o1)/c1ccccn1 | 5 | 5.01 | – | – |
| C/C(=N\Nc1nc2ccccc2o1)c1ccccn1 | 9 | 8.91 | – | – |
| C/C(=N\Nc1nc2ccccc2o1)c1ccncn1 | 144 | 145 | – | – |
| c1ccc(/C(=N/Nc2nc3ccccc3o2)C2CC2)nc1 | 185 | 186 | – | – |
| C/C(=N\N(C)c1nc2ccccc2o1)c1ccccn1 | > 50000 | – | – | – |
| CCC/C(=N\Nc1nc2ccccc2o1)c1ccccn1 | 6 | 6.03 | – | – |
| c1ccc(C/C(=N\Nc2nc3ccccc3o2)c2ccccn2)cc1 | > 10000 | – | – | – |
| C/C(=N\Nc1nc2ccccc2o1)c1cccc[n+]1[O-] | 27 | 26.9 | – | – |
| C/C(=N\Nc1nc2ccccc2o1)c1cc(C)ncn1 | 42 | 41.7 | – | – |
| C/C(=N\Nc1nc2ccccc2o1)c1cc2ccccc2cn1 | 30 | 30.2 | – | – |
| CC/C(=N\Nc1nc2ccccc2o1)c1ccccn1 | 2 | 2 | 51.3 | – |
| C/C(=N\Nc1nc2ccccc2o1)c1ccc(C)nn1 | 6270 | 6310 | – | – |
| C/C(=N\Nc1nc2ccccc2o1)c1cnc(C)cn1 | 150 | 151 | – | – |
| C/C(=N\Nc1nc2ccccc2o1)c1ccc2ccccc2n1 | 5490 | 5500 | – | – |
| CC(C)/C(=N\Nc1nc2ccccc2o1)c1ccccn1 | 14 | 14.1 | – | – |
| c1ccc(C(=NNc2nc3ccccc3o2)c2ccccn2)nc1 | 12 | 12 | – | – |
